Source: patent US20180071317A1, “USE OF AGENTS THAT ALTER THE PERITUMORAL ENVIRONMENT FOR THE TREATMENT OF CANCER” (SERVICIO ANDALUZ DE SALUD, priority 2011, published 2018)

Assays:
[1] = system: fibroblasts (PHF) co-cultured with tumor cells in human prostate carcinoma (22Rv1); test: Marker expression (IHC) in PHF co-cultured with 22Rv1 tumor cells; format: cell-based; settings: co-culture with 22Rv1; SP 1 μM; 48 h;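 note: cultures grown on fresh plasma from a healthy donor, each experiment run sixfold, values give the percentage of fibroblasts positive for the given marker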
Procedure: (§1) All cultures were maintained 48 hours, following which the same cells were included in paraffin blocks for subsequent analysis of the expression of different markers by immunohistochemistry (see Example 1). […] All experiments were carried out sixfold. Analyzed markers in fibroblast cells (stromal cells) were: TGF-α, TGF-β1, TGF-β2, TGF-β3, SPARC, MMP-3, MMP-7, MMP-9, MMP-11, MMP-13 and MMP-14.

[2] = system: fibroblasts (PHF) co-cultured with tumor cells of human Burkitt lymphoma (CA-46); test: Marker expression (IHC) in PHF co-cultured with CA-46 tumor cells; format: cell-based; settings: PHF co-cultured with CA-46 + SP;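 note: percentage of PHF fibroblasts positive for each marker, cultures grown in fresh human plasma from a healthy donor, six replicates, compared with fibroblasts cultured alone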
Procedure: (§2) All cultures were maintained 48 hours, following which the same cells were included in paraffin blocks for subsequent analysis of the expression of different markers by immunohistochemistry (see Example 1). The primary antibodies used to perform immunohistochemical assays and their concentration are detailed in Example 2. All experiments were carried out sixfold. Analyzed markers in fibroblast cells (stromal cells) were: TGF-α, TGF-β1, TGF-β2, TGF-β3, SPARC, MMP-3, MMP-7, MMP-9, MMP-11, MMP-13 and MMP-14.

[3] = system: fibroblasts (PHF) co-cultured with tumor cells, ovarian carcinoma (EFO-27); test: Marker expression (IHC) in PHF co-cultured with EFO-27 tumor cells; format: cell-based, human; settings: co-culture with EFO-27; SP 1 μM; 48 h;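 note: values are the percentage of PHF fibroblasts positive for each marker, cultured in fresh plasma from a healthy human donor, each experiment run in six replicates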
Procedure: as §1

[4] = system: fibroblasts (PHF) co-cultured with human neuroblastoma tumor cells (KELLY); test: Marker expression (IHC) in PHF co-cultured with KELLY tumor cells; format: cell-based; settings: PHF co-cultured with KELLY + SP;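 note: Co-cultures grown on healthy-donor human blood plasma, run in six replicates, value is percentage of fibroblasts positive for each marker, compared with fibroblasts cultured alone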
Procedure: as §1

[5] = system: macrophages in co-culture with cells isolated from primary human tumors; test: Marker expression (IHC) in macrophages co-cultured with primary human tumor cells (colon, breast, ovarian, lung carcinoma, melanoma); format: cell-based; settings: SP 1 μM;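 note: macrophages came from pleural or peritoneal washings of the patient who also supplied the tumor cells, and both were co-cultured on fresh blood plasma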
Procedure: To check that the interaction of tumor cells obtained directly from primary human immune cell/inflammatory (macrophages) cells, obtained from the patient stimulate secretion of substances by these macrophages recognized as important in survival of both cell types and in the progression of tumor cells, co-cultures were performed on fresh blood plasma, immune cell/inflammatory (macrophages) with tumor cells derived from primary tumors. All obtained from the same patient, to build an experimental model similar to human physiology.
Macrophages were obtained from washing or pleural or peritoneal from the same patient from which the primary tumor cells were obtained in each case.

[6] = system: polymorphonuclear cells; test: Marker expression (immunohistochemistry) in polymorphonuclear blood cells with SP alone or with NK1 antagonists; format: cell-based, human; settings: SP 1 μM; 48 h
Source text: (§3) Briefly, heparinized blood from healthy donors was centrifuged so as to separate the various components thereof. Red blood cells remained at the bottom of the tube. Above them was a small white layer composed of the white blood cells and above, on top of the tube, the blood plasma. The layer of white cells was distributed in a culture plate of 24 wells by adding in each the same concentration of blood plasma from the same donor, supplemented with 1% antibiotic-antimycotic (Invitrogen). In each well, approximately 1000 cells (PHF) skin from the dermis were further added, obtained as previously described in Example 2. […] After 48 hours of incubation, cells were collected and embedded in paraffin for expression analysis by immunohistochemical techniques (as described in Example 1).
(§4) The expression of TGF molecular markers (anti-TGF 2, SAB4502956) and NF-kB (anti-NF-kB, SAB4501992) using specific antibodies against them were analyzed. All antibodies used were rabbit polyclonal antibodies obtained from Sigma Aldrich and were used at a concentration of 1/1000. All experiments were carried out sixfold.

[7] = system: mononuclear cells; test: Marker expression (immunohistochemistry) in mononuclear blood cells with SP alone or with NK1 antagonists; format: cell-based, human; settings: SP 1 μM; 48 h
Source text: as §3, §4

[8] = system: human primary macrophages (PHM); test: Marker expression (immunohistochemistry) in human primary macrophages with SP alone or with NK1 antagonists; format: cell-based; settings: SP 1 μM; 48 h
Procedure: In this sense the next step was to analyze the effect exerted by the treatment with non-peptide NK1 antagonists in human primary macrophages (PHM) obtained and purified from pleural effusion samples obtained from men with chronic age range between 45 and 55 years. Briefly, the pleural fluid from chronic (rich in macrophages) was centrifuged.
After 48 hours of culture, cells were harvested and cellular paraffin blocks were constructed for immunohistochemical analysis (see Example 1). To analyze the expression of markers EGF, MMP-9, VEGF and IL-8 antibodies were used as follows: EGF (rabbit monoclonal antibody, anti-EGF; 07-1432. Merck-Millipore), MMP-9 (polyclonal rabbit anti-MMP-9: SAB4501896, Sigma-Aldrich), VEGF (mouse monoclonal anti-VEGF, GF25-100UG, Merck-Millipore) and TNF-α (mouse monoclonal anti-TNF-α, number MAB 1021 catalogue, obtained from Merck-Millipore). All of these antibodies were used at a concentration of 1/1000. System for labelling with a secondary antibody specific for the primary antibodies obtained from rabbit or mouse was used, as was necessary in each case, both the Envision (Dako). All experiments were carried out sixfold.

[9] = system: human primary fibroblasts (PHF); test: Marker expression (immunohistochemistry) in human primary fibroblasts with SP alone or with NK1 antagonists; format: cell-based; settings: SP 1 μM; 48 h;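 note: primary human dermal fibroblasts, immunostained with rabbit polyclonal antibodies against each marker, value is percentage of stained cells among all cells counted in 20 fields at 400× per section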
Procedure: These PHF were obtained and purified from samples obtained from the dermis of the skin of healthy volunteers as described in De Bari et al (De Bari et al. 2001). Briefly, small pieces of skin dermis were digested in a solution of hyaluronidase (Sigma-Aldrich, USA) at a concentration of 1 mg/ml for 15 minutes at 37° C. and then treated with 6 mg/ml collagenase type IV (Invitrogen) for 2 hours at 37° C. Then, the cells were washed, resuspended in DMEM culture medium with high glucose (Dulbecco's Modified Eagle's Medium, Invitrogen) supplemented with 1% antibiotic-antimycotic (Invitrogen) and 1% pyruvate Sodium (Invitrogen), and seeded in culture dishes at a concentration of 10,000 cells per square centimeter. When the cells reached confluence, adherent cells were detached using 0.5% sterile trypsin (Invitrogen) and used between passages 3 and 9. For tests shown below, the PHF were plated in 24-well plates at a concentration of 25,000 cells per well.
After 48 hours of culture, cells were harvested and paraffin cell-blocks for immunohistochemical analysis were constructed, as previously explained in Example 1.
In immunohistochemical assays the expression of the following markers were studied: TGFα (SAB4502953), TGF1 (SAB4502954), TGFβ2 (SAB4502956), TGFβ3 (SAB4502957), SPARC (HPA002989), MMP-3 (HPA007875) MMP-7 (SAB4501894), MMP-9 (SAB4501896), MMP-11 (SAB4501898), MMP-13 (SAB4501900) and MMP-14 (SAB4501901) using specific antibodies against them. All antibodies used were rabbit polyclonal antibodies obtained from Sigma-Aldrich and were used at a concentration of 1/1000. All experiments were carried out sixfold.
On each of the six sections cell counts were performed in 20 high power fields (400×) through an Olympus microscope (model CX31) to assess the immunostaining. On each of the fields total cell number and number of cells displaying immunostaining were counted, being then the percentage of cells displaying said immunostaining.

[10] = system: fibroblasts (PHF) co-cultured with human choriocarcinoma tumor cells (AC-1M32); test: Marker expression (IHC) in PHF co-cultured with AC-1M32 tumor cells; format: cell-based; settings: co-culture with AC-1M32; SP 1 μM; 48 h;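 note: Read-out is the percentage of PHF fibroblasts positive for each marker, with cells grown in fresh healthy-donor blood plasma, six replicates, reference being fibroblasts cultured alone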
Procedure: as §1

[11] = system: fibroblasts (PHF) co-cultured with tumor cells, thyroid carcinoma; test: Marker expression (IHC) in PHF co-cultured with thyroid carcinoma tumor cells; format: cell-based, human; settings: co-culture with thyroid carcinoma cells; SP 1 μM; 48 h;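 note: grown in fresh plasma from a healthy human donor, read-out is percent of fibroblasts positive for each marker, compared with fibroblasts cultured alone, run in six replicates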
Procedure: as §1

[12] = system: fibroblasts (PHF) co-cultured with tumor cells, thyroid carcinoma (reference A-427); test: as above; format: cell-based, human; settings: co-culture with thyroid carcinoma cells; SP 1 μM; 48 h
Procedure: as §1

[13] = system: fibroblasts (PHF) co-cultured with tumor cells of human Edwing sarcoma (MHH-ES-1); test: Marker expression (IHC) in PHF co-cultured with MHH-ES-1 tumor cells; format: cell-based; settings: PHF co-cultured with MHH-ES-1 + SP
Procedure: as §1

[14] = system: fibroblasts (PHF) co-cultured with tumor cells of human colon adenocarcinoma (SW-403); test: Marker expression (IHC) in PHF co-cultured with SW-403 tumor cells; format: cell-based; settings: co-culture with SW-403; SP 1 μM; 48 h
Procedure: as §2

[15] = co-culture with cells isolated from breast carcinoma
[16] = co-culture with cells isolated from colon carcinoma
[17] = co-culture with cells isolated from lung carcinoma
[18] = co-culture with cells isolated from melanoma
[19] = co-culture with cells isolated from ovarian carcinoma

## CSCC[C@H](NC(=O)[C@H](CC(C)C)NC(=O)CNC(=O)[C@H](Cc1ccccc1)NC(=O)[C@H](Cc1ccccc1)NC(=O)[C@H](CCC(N)=O)NC(=O)[C@H](CCC(N)=O)NC(=O)[C@@H]1CCCN1C(=O)[C@H](CCCCN)NC(=O)[C@@H]1CCCN1C(=O)[C@@H](N)CCCNC(=N)N)C(N)=O [SP]
[1]
  PHF cells expressing MMP-3: 43.3 ± 2.7%
  PHF cells expressing MMP-7: 54.3 ± 4.8%
  PHF cells expressing MMP-9: 51.4 ± 2.4%
  PHF cells expressing MMP-11: 28.5 ± 3.8%
  PHF cells expressing MMP-13: 46 ± 2.5%
  PHF cells expressing MMP-14: 49 ± 3.5%
  PHF cells expressing SPARC: 48.1 ± 3.2%
  PHF cells expressing TGF-α: 41.4 ± 2.1%
  PHF cells expressing TGF-β1: 34.5 ± 3.1%
  PHF cells expressing TGF-β2: 42.5 ± 2.1%
  PHF cells expressing TGF-β3: 4.11 ± 3.6%
[2]
  cells expressing MMP-3: 63.4 ± 4.3%
  cells expressing MMP-7: 66.1 ± 3.8%
  cells expressing MMP-9: 72.3 ± 4.4%
  cells expressing MMP-11: 67.4 ± 5.8%
  cells expressing MMP-13: 55 ± 6.4%
  cells expressing MMP-14: 59.1 ± 6.3%
  cells expressing SPARC: 77 ± 4.2%
  cells expressing TGF-α: 61.4 ± 5.1%
  cells expressing TGF-β1: 63.4 ± 4.1%
  cells expressing TGF-β2: 60.5 ± 5.1%
  cells expressing TGF-β3: 71 ± 4.56%
[3]
  PHF cells expressing MMP-3: 44.4 ± 1.5%
  PHF cells expressing MMP-7: 55.1 ± 2.6%
  PHF cells expressing MMP-9: 56.6 ± 1.7%
  PHF cells expressing MMP-11: 22.4 ± 2.6%
  PHF cells expressing MMP-13: 55 ± 2.5%
  PHF cells expressing MMP-14: 46.2 ± 2.5%
  PHF cells expressing SPARC: 46 ± 2.2%
  PHF cells expressing TGF-α: 37.2 ± 2.1%
  PHF cells expressing TGF-β1: 35.5 ± 2.1%
  PHF cells expressing TGF-β2: 45.4 ± 1.2%
  PHF cells expressing TGF-β3: 42 ± 1.6%
[4]
  cells expressing MMP-3: 45.4 ± 4.7%
  cells expressing MMP-7: 57.4 ± 3.8%
  cells expressing MMP-9: 51.2 ± 2.4%
  cells expressing MMP-11: 29.4 ± 4.8%
  cells expressing MMP-13: 44.3 ± 4.5%
  cells expressing MMP-14: 51.2 ± 4.2%
  cells expressing SPARC: 46.5 ± 4.2%
  cells expressing TGF-α: 42.4 ± 3.1%
  cells expressing TGF-β1: 36.5 ± 2.1%
  cells expressing TGF-β2: 42.2 ± 2.2%
  cells expressing TGF-β3: 43.4 ± 2.3%
[5]; [15]
  Percentage of macrophages which expressed EGF: 41.6 ± 4.2%
  Percentage of macrophages which expressed MMP-9: 39.5 ± 3.2%
  Percentage of macrophages which expressed VEGF: 37.4 ± 4.2%
[5]; [16]
  Percentage of macrophages which expressed EGF: 41.4 ± 4.2%
  Percentage of macrophages which expressed MMP-9: 39.5 ± 3.5%
  Percentage of macrophages which expressed VEGF: 38.5 ± 2.9%
[5]; [17]
  Percentage of macrophages which expressed EGF: 38.4 ± 2.9%
  Percentage of macrophages which expressed MMP-9: 39.4 ± 3.7%
  Percentage of macrophages which expressed VEGF: 37.4 ± 4.2%
[5]; [18]
  Percentage of macrophages which expressed EGF: 41.9 ± 3.2%
  Percentage of macrophages which expressed MMP-9: 39.5 ± 5.3%
  Percentage of macrophages which expressed VEGF: 35.4 ± 4.4%
[5]; [19]
  Percentage of macrophages which expressed EGF: 41.5 ± 4.2%
  Percentage of macrophages which expressed MMP-9: 39.5 ± 3.2%
  Percentage of macrophages which expressed VEGF: 37.4 ± 4%
[6]
  polymorphonuclear cells expressing NF-kB: 17.5 ± 1.6%
  polymorphonuclear cells expressing TGF-β: 36.8 ± 2.1%
[7]
  mononuclear cells expressing NF-kB: 25.7 ± 1.4%
  mononuclear cells expressing TGF-β: 16.4 ± 1.2%
[8]
  macrophages expressing EGF: 27.4 ± 1.1%
  macrophages expressing MMP-9: 24.3 ± 1.4%
  macrophages expressing VEGF: 29.6 ± 2.1%
[9]
  PHF cells expressing MMP-3: 33.9 ± 2.2%
  PHF cells expressing MMP-7: 46.2 ± 2.3%
  PHF cells expressing MMP-9: 35.5 ± 2.5%
  PHF cells expressing MMP-11: 7.8 ± 2.9%
  PHF cells expressing MMP-13: 17.1 ± 2.6%
  PHF cells expressing MMP-14: 47.3 ± 2.5%
  PHF cells expressing SPARC: 16 ± 1.9%
  PHF cells expressing TGFα: 16.5 ± 1.2%
  PHF cells expressing TGFβ 1: 18.4 ± 1.3%
  PHF cells expressing TGFβ 2: 24.6 ± 1.4%
  PHF cells expressing TGFβ 3: 23.1 ± 1.7%
[10]
  PHF cells expressing MMP-3: 45.4 ± 2.7%
  PHF cells expressing MMP-7: 57.1 ± 3.8%
  PHF cells expressing MMP-9: 56.3 ± 2.4%
  PHF cells expressing MMP-11: 28.4 ± 2.8%
  PHF cells expressing MMP-13: 47 ± 3.7%
  PHF cells expressing MMP-14: 51.2 ± 4.5%
  PHF cells expressing SPARC: 46 ± 3.1%
  PHF cells expressing TGF-α: 41.4 ± 1.1%
  PHF cells expressing TGF-β1: 36.5 ± 2.1%
  PHF cells expressing TGF-β2: 53.5 ± 3.1%
  PHF cells expressing TGF-β3: 46 ± 3%
[11]
  PHF cells expressing MMP-11: 29.4 ± 3.8%
[12]
  PHF cells expressing MMP-3: 43.1 ± 1.7%
  PHF cells expressing MMP-7: 56.4 ± 3.8%
  PHF cells expressing MMP-9: 51.4 ± 3.4%
  PHF cells expressing MMP-13: 4.25 ± 3.6%
  PHF cells expressing MMP-14: 49.1 ± 3.6%
  PHF cells expressing SPARC: 48.1 ± 1.3%
  PHF cells expressing TGF-α: 42.4 ± 1.2%
  PHF cells expressing TGF-β1: 33.7 ± 1.3%
  PHF cells expressing TGF-β2: 42.6 ± 1.1%
  PHF cells expressing TGF-β3: 42.1 ± 1.5%
[13]
  cells expressing MMP-3: 43.5 ± 3.7%
  cells expressing MMP-7: 56.7 ± 4.8%
  cells expressing MMP-9: 54.4 ± 2.4%
  cells expressing MMP-11: 28.4 ± 3.8%
  cells expressing MMP-13: 46.6 ± 3.6%
  cells expressing MMP-14: 49.6 ± 4.2%
  cells expressing SPARC: 46.5 ± 3.2%
  cells expressing TGF-α: 36.4 ± 3.1%
  cells expressing TGF-β1: 35.5 ± 2.1%
  cells expressing TGF-β2: 42.6 ± 5.1%
  cells expressing TGF-β3: 42.4 ± 1.6%
[14]
  PHF cells expressing MMP-3: 46.4 ± 1.9%
  PHF cells expressing MMP-7: 53.1 ± 2.2%
  PHF cells expressing MMP-9: 55.7 ± 1.6%
  PHF cells expressing MMP-11: 26.4 ± 2.6%
  PHF cells expressing MMP-13: 46.5 ± 3.7%
  PHF cells expressing MMP-14: 51.3 ± 3.6%
  PHF cells expressing SPARC: 48 ± 1.6%
  PHF cells expressing TGF-α: 42.5 ± 1%
  PHF cells expressing TGF-β1: 34.3 ± 1.2%
  PHF cells expressing TGF-β2: 42.5 ± 1.5%
  PHF cells expressing TGF-β3: 44 ± 1.9%
